Measurements from patent publication US20090029932A1, “Identification and use of miRNAs for differentiating myeloid leukemia cells” (Centre National De La Recherche Scientifique (CNRS), priority 2004, published 2009).

Key:
miR23a in NB4-LR2 cells = experiment: Northern blot of miR23a expression in NB4-LR2 cells; format: cell-based, human; conditions: ATRA
miRNAs in NB4 cells = experiment: Northern blot of miRNA expression in NB4 cells; format: cell-based, human; conditions: 1 μM ATRA
Protocol: (§1) The total RNA was extracted from the cells of the NB4 cell lines treated or not treated with 1 μM of ATRA, at the same time intervals as in example 1, and using the Tri-Reagent® kit (SIGMA) according to the manufacturer's instructions. The analysis of the low molecular weight RNA by northern blot was carried out as described in LLAVE et al. (2002, previously cited). All of the northern blot experiments were carried out in double. DNA oligonucleotides complementary to the sequences of the miRNAs analysed were labelled at their end with ATP γ-P^32 using the polynucleotide kinase T4 (NEW ENGLAND BIOLABS) by following the manufacturer's instructions.
The quantity of RNA in each well was controlled by coloration of the gel with ethidium bromide and visualisation of the ribosomal RNA (rRNA) under UV light. […] In addition, the miRNAs that seem to belong to a same precursor effectively present a similar expression profile over time.
(§2) To formally establish the correlation between the expression of the different miRNAs identified and the differentiation in granulocytes, cells from NB4 and NB4-LR1 cell lines were cultivated in the presence or absence of ATRA as described in example 1. Northern blot experiments were carried out according to the protocol described in example 2. The different northern blot experiments were carried out with probes complementary to the miRNAs miR-23a, miR-17, miR-18, miR-19a, miR-19b, miR-20, miR-23 and miR-92.
To confirm the correlation between the expression of different miRNAs, and in particular miR-17, miR-18, miR-19a, miR19b, miR-20 and miR-92 and the differentiation in granulocytes, cells from NB4 and NB4-LR1 cell lines were cultivated in the presence or absence of ATRA/cAMP as described in example 1. Following an ATRA/cAMP co-treatment, the differentiation of the cells in the NB4-LR1 cell line in granulocytes is restored. Northern blot experiments were carried out according to the protocol described in example 2. […]

NB4-LR2 cell line = conditions: truncated PML-RARa; cited from earlier work
miRNAs in NB4-LR1 cells = experiment: Northern blot of miRNA expression in NB4-LR1 cells; format: cell-based, human; conditions: NB4-LR1 compared with NB4; ATRA
Protocol: as §1
as §2, with “miR-92. […]” for “miR-92.”

NB4-LR1 cell line = experiment: Granulocytic differentiation, NBT reduction test, NB4-LR1 cells; format: cell-based, human; conditions: for percentage of cells differentiated during the treatment: 100 μM 8-CPT-cAMP where added, NBT positive cells
Protocol: (§3) The cells from cell line NB4 and cell line NB4-LR1, resistant at maturation only by ATRA, were grown as described in LANOTTE et al. (1991, previously cited) and in RUCHAUD et al. (Proc. Natl. Acad. Sci., vol. 91, p: 8428-8432, 1994). The cells were then treated for 4 days in the presence of 1 μM of all-trans retinoic acid (ATRA, SIGMA-ALRICH) alone or with the addition of 100 μM of an cAMP analogue (8-CPT-cAMP, SIGMA-ALRICH). The cell proliferation was determined on a daily basis by counting the cells using a cell counter (BECKMAN COULTER FRANCE SA) from day 0, following the addition of the therapeutic agent, to day 4.
(§4) In parallel, the evolution of the differentiation was determined on a daily basis throughout the treatment. The granulocytic differentiation was simultaneously evaluated according to the morphological and biochemical criteria. The morphological analysis was carried out after May-Grünwald colouring. The biochemical analysis was carried out by a coloration test based on the reduction of NBT (nitro blue tetrazolium) that is used to measure the oxidative ability of the mature cells to reduce the NBT colorant. For this purpose, 0.5 to 1×10^5 cells were centrifuged for 5 minutes at 190 g. The cell sediment was then recovered in 200 μl of saline phosphate buffer (PBS) with the addition of NBT (SIGMA ALDRICH, 1 mg/ml) and PMA (Phorbol 12-myristate 13-acetate, SIGMA, 10^−7M) and then was incubated for 20 minutes at 37° C. The cells were then collected on slides by Cytospin® centrifugation, then observed by phase contrast microscopy. A minimum of 200 cells per slide were examined under light microscope and a differentiation percentage was calculated on the basis of the number of positive NBT cells.

NB4 cell line = experiment: Granulocytic differentiation, NBT reduction test, NB4 cells; format: cell-based, human; conditions: for percentage of cells differentiated during the treatment: 100 μM 8-CPT-cAMP where added, NBT positive cells
Protocol: as §3, §4

CC1=C(/C=C/C(C)=C/C=C/C(C)=C/C(=O)O)C(C)(C)CCC1 [ATRA, all-trans retinoic acid]
expression of miR23a (miR23a in NB4-LR2 cells): an increase in the expression of miR23a is not observed | expression profile of miR-19b and miR-92, time of maximum (miRNAs in NB4 cells; 0 to 4 days): maximum of expression on day three of treatment | level of expression of miR-23a (miRNAs in NB4 cells; 0 to 4 days): increases over time | level of expression of miR-19b and miR-92 on day 4 of treatment (miRNAs in NB4 cells; against non treated cells): lower than their level of expression in the non treated cells | sensitivity of the cells to induced differentiation (NB4-LR2 cell line): insensitive | expression profile of miR-17, miR-18, miR-19a, miR19b, miR-20 and miR-92 (miRNAs in NB4-LR1 cells): different expression profile between the NB4 and NB4-LR1 cells | differentiation of the cells (in words) (NB4-LR1 cell line): only the cells in the NB4 cell line differentiate | percentage of cells differentiated during the treatment (NB4-LR1 cell line; day 0, 1 μM ATRA): 0% | percentage of cells differentiated during the treatment (NB4-LR1 cell line; day 1, 1 μM ATRA): 0% | percentage of cells differentiated during the treatment (NB4-LR1 cell line; day 2, 1 μM ATRA): 2% | percentage of cells differentiated during the treatment (NB4-LR1 cell line; day 3, 1 μM ATRA): 5% | percentage of cells differentiated during the treatment (NB4-LR1 cell line; day 4, 1 μM ATRA): 5% | differentiation of the cells (in words) (NB4 cell line): differentiate | percentage of cells differentiated during the treatment (NB4 cell line; day 0, 1 μM ATRA): 0% | percentage of cells differentiated during the treatment (NB4 cell line; day 1, 1 μM ATRA): 6% | percentage of cells differentiated during the treatment (NB4 cell line; day 2, 1 μM ATRA): 20% | percentage of cells differentiated during the treatment (NB4 cell line; day 3, 1 μM ATRA): 43% | percentage of cells differentiated during the treatment (NB4 cell line; day 4, 1 μM ATRA): 95%
